Consider 35 molecules from ChEMBL document CHEMBL1857833, “Screening and optimization of specific chemical series against human African Trypanosomiasis (HAT)”.

Converted amounts (≈) assume the structure as drawn. “And” between values parts separate entries of the source, which are not always exact repeats. Identical values can stand only once. Bounds are passed on as bounds.

Series [1] in a line: DNDI: Cytotoxicity against L929 mouse fibroblasts, CYTO-SP, 24 hour. It counts as toxicity, cell-based. The conditions noted are these: mouse, L929 mouse fibroblasts.
For a further series, the system named is Trypanosoma brucei. Put plainly: DNDI: Inhibition of Human African Trypanosomiasis, SBRI 427, in vitro. It counts as functional, organism-based.
Series [2] can be described thus: DNDI: Cytotoxicity against L929 mouse fibroblasts, 72 hour. The conditions noted are these: mouse, L929 mouse fibroblasts. It counts as toxicity, cell-based.
Setting [3] is: Trypanosoma brucei, SBRI 427, read-out: IC50.

In general, IC50 refers to the concentration at which inhibition is half-maximal. The molecule `C[C@@H]1[C@H]2C[C@@H](C[C@H]1N/C(=N\O)c1ccccc1-c1ccccc1)C2(C)C` yielded an IC50 at 24 h in series [1] of 17 µg/mL (≈ 48.8 µM). Also, in the series on Trypanosoma brucei (setting [3]), the IC50 amounted to 5 µg/mL (≈ 14.3 µM).
The corresponding values for `O/N=C(/c1ccccc1-c1ccccc1)n1ccnc1` are greater than 50 µg/mL and greater than 5 µg/mL.
In the same order, the values of `CCOc1ccccc1CN/C(=N\O)c1cccnc1Oc1ccc(C(C)C)cc1` are 38.6 µg/mL (≈ 95.1 µM) and 1.12 µg/mL (≈ 2.76 µM).
For `Cc1cc(C)cc(Oc2ccc(/C(=N/O)NC3CCC3)cn2)c1`, in series [1], the IC50 at 24 h is greater than 50 µg/mL. Besides, in the series with Trypanosoma brucei (setting [3]), the IC50 was found to be 0.59 µg/mL (≈ 1.89 µM).
The corresponding values for `C[C@@H]1[C@@H](N/C(=N\O)c2ccccc2-c2ccccc2)C[C@H]2C[C@@H]1C2(C)C` are 17 µg/mL (≈ 48.8 µM) and greater than 5 µg/mL.
The corresponding values for `Cc1cc(C)cc(Oc2ccc(/C(=N/O)NC3CCCC3)cn2)c1` are less than 50 µg/mL and 0.59 µg/mL (≈ 1.81 µM).
Molecule `CCCOc1ccc(-c2nc(CNC3CCCCCC3)co2)cc1` came in with an IC50 at 24 h in series [1] of 15.8 µg/mL (≈ 48.1 µM). For the same molecule, the IC50 at 72 h in series [2] is less than 3.13 µg/mL. Also, the IC50 in the series on Trypanosoma brucei (setting [3]) came out at 1.25 µg/mL (≈ 3.81 µM).
As for `CCc1ccc(Oc2ncccc2/C(=N/O)NCc2ccccc2C)cc1`, the IC50 at 24 h in series [1] was greater than 50 µg/mL. In addition, in the series on Trypanosoma brucei (setting [3]), the IC50 came to 1.07 µg/mL (≈ 2.96 µM).
As to `Cc1ccccc1CN/C(=N\O)c1cccnc1Oc1ccc(C(C)C)cc1`, in series [1], the IC50 at 24 h was 44.9 µg/mL (≈ 120 µM). Besides, in the series with Trypanosoma brucei (setting [3]), the IC50 was determined as 1.06 µg/mL (≈ 2.82 µM).
Turning to `CSc1ccccc1Oc1ncccc1/C(=N/O)NCC1CC1`, the IC50 at 24 h in series [1] was greater than 50 µg/mL. In addition, the IC50 in the series with Trypanosoma brucei was 0.53 µg/mL and < 0.19 µg/mL.
In the case of `COc1ccccc1Oc1ncccc1C(=N)NC1CCCCC1`, in series [1], the IC50 at 24 h is greater than 50 µg/mL. Besides, in the series on Trypanosoma brucei (setting [3]), the IC50 is greater than 5 µg/mL.
`CC(C)c1ccc(Oc2ncccc2/C(=N/O)NCc2cccs2)cc1` showed an IC50 at 24 h in series [1] greater than 50 µg/mL. Further, the IC50 in the series on Trypanosoma brucei (setting [3]) is 0.89 µg/mL (≈ 2.42 µM).
For `CN(/C(=N\O)c1cccnc1OCc1cccc(F)c1)c1ccccc1`, the IC50 at 24 h in series [1] is greater than 50 µg/mL. Moreover, the IC50 with Trypanosoma brucei (setting [3]) was determined as 1.09 µg/mL (≈ 3.1 µM).
`COc1ccccc1/C(N)=N/O` yielded an IC50 at 24 h in series [1] greater than 50 µg/mL. Also, in the series on Trypanosoma brucei (setting [3]), the IC50 was greater than 5 µg/mL.
In the same order, the values of `COc1ccccc1-c1noc(C(C)C)n1` are greater than 50 µg/mL and greater than 5 µg/mL.
On to `CCCC(CCC)NCc1coc(-c2ccc(OCC)cc2)n1`, for which the IC50 at 24 h in series [1] is greater than 50 µg/mL. Also, the IC50 at 72 h in series [2] turned out to be 6.37 µg/mL (≈ 20.1 µM).
`O/N=C(\NC1CCCCC1)c1ccnc(Oc2cccc3c2CCCC3)c1` yielded an IC50 at 24 h in series [1] of 48.4 µg/mL (≈ 132 µM). For the same molecule, the concentration for half-maximal inhibition (IC50) in the series with Trypanosoma brucei (setting [3]) worked out at 0.83 µg/mL (≈ 2.27 µM).
In turn, `CC1CCCC(NCc2coc(-c3ccccc3Br)n2)C1C` (centres undefined) showed an IC50 at 24 h in series [1] greater than 50 µg/mL. Also, the IC50 in the series with Trypanosoma brucei is 2.06 µg/mL and 0.92 µg/mL.
`CCCNC/C(=N\O)c1ccc(OC)cc1` yielded an IC50 at 24 h in series [1] greater than 50 µg/mL. Further, the IC50 in the series with Trypanosoma brucei (setting [3]) is greater than 5 µg/mL.
The corresponding values for `COc1cccc(/C(=N/O)N(C(=O)C(C)C)C(=O)C(C)C)c1` are greater than 50 µg/mL and greater than 5 µg/mL.
In the same order, the values of `CCOc1ccccc1CN/C(=N\O)c1cccnc1Oc1ccc(CC)cc1` are greater than 50 µg/mL and 0.76 µg/mL (≈ 1.94 µM).
In the same order, the values of `O/N=C(/NC1CCCCC1)c1ccc2ccccc2c1` are 21.1 µg/mL (≈ 78.7 µM) and greater than 5 µg/mL.
In series [1], `O/N=C(\NC1CCCCC1)c1cccc(-c2ccccc2)c1` had an IC50 at 24 h of 35 µg/mL (≈ 119 µM). The IC50 in the series on Trypanosoma brucei (setting [3]) was 2.6 µg/mL (≈ 8.83 µM).
For `CCCCc1ccc(-c2nc(C)co2)cc1`, the IC50 at 24 h in series [1] was greater than 50 µg/mL. The same molecule had an IC50 at 72 h in series [2] of 42.1 µg/mL (≈ 195 µM). For the same molecule, the IC50 in the series with Trypanosoma brucei (setting [3]) was greater than 5 µg/mL.
The corresponding values for `CCCOc1ccc(-c2nc(CNC3[C@H]4C[C@@H]5C[C@@H](C[C@H]3C5)C4)co2)cc1` (some centres undefined) are greater than 50 µg/mL, 3.67 µg/mL (≈ 10 µM) and 0.69 µg/mL (≈ 1.88 µM).
`CON(C)C(=O)c1ccccc1-c1ccccc1` showed an IC50 at 24 h in series [1] greater than 50 µg/mL. Also, the IC50 in the series with Trypanosoma brucei (setting [3]) was greater than 5 µg/mL.
In the same order, the values of `CCC(CC)N/C(=N\O)c1cccnc1OCC1CCCCC1` are 33.5 µg/mL (≈ 105 µM) and 0.44 µg/mL (≈ 1.38 µM).
Molecule `CCc1ccc(Oc2ncccc2/C(=N/O)NCc2ccccc2)cc1` yielded an IC50 at 24 h in series [1] greater than 50 µg/mL. The IC50 in the series on Trypanosoma brucei (setting [3]) is 1.08 µg/mL (≈ 3.11 µM).
The corresponding values for `CCC(C)(C)N/C(=N\O)c1cccnc1Oc1ccc2ccccc2c1` are greater than 50 µg/mL and 0.49 µg/mL (≈ 1.4 µM).
The corresponding values for `Cc1cc(C)cc(Oc2ccc(/C(=N/O)NC3CCCCC3)cn2)c1` are greater than 50 µg/mL and 1.08 µg/mL (≈ 3.18 µM).
As to `O/N=C(\NCC1CC1)c1cccnc1Oc1ccc2ccccc2c1`, in series [1], the IC50 at 24 h is greater than 50 µg/mL. Also, the IC50 with Trypanosoma brucei (setting [3]) turned out to be 0.62 µg/mL (≈ 1.86 µM).
In the same order, the values of `Cc1cc(C)cc(Oc2ccc(/C(=N/O)NCC(C)(C)C)cn2)c1` are greater than 50 µg/mL and 0.77 µg/mL (≈ 2.35 µM).
In turn, `COc1ccccc1Oc1ncccc1C(=N)N` showed an IC50 at 24 h in series [1] greater than 50 µg/mL. The IC50 with Trypanosoma brucei (setting [3]) was greater than 5 µg/mL.
In the same order, the values of `CC1CCC(C)N1/C(=N\O)c1ccc(Oc2ccc3ccccc3c2)nc1` (centres undefined) are greater than 50 µg/mL and 0.91 µg/mL (≈ 2.52 µM).
As to `CCCCc1ccc(-c2nc(-c3ccccc3)co2)cc1`, the IC50 at 24 h in series [1] is greater than 50 µg/mL. Also, the IC50 at 72 h in series [2] was determined as 26.6 µg/mL (≈ 96 µM). Moreover, in the series on Trypanosoma brucei (setting [3]), the IC50 was greater than 5 µg/mL.
